# System: Leiomyosarcoma Tumorzell-Linie SK-UT-1B
# Assay: Test 2: inhibition of proliferation of cultured human tumour cells (14C-thymidine incorporation)
# Assay type: cell-based
# Conditions: Skut1B, SK-UT-1B cells, 48 h incubation with compound, then a further 24 h with 14C-thymidine, measured in duplicate, read-out: Hemmung der SKUT-1B-Proliferation IC50
# From the text: Inhibierung der Profileration von kultivierten humanen Tumorzellen
# Zellen der Leiomyosarcoma Tumorzell-Linie SK-UT-1B (erhalten von der American Type Culture Collection (ATCC)) wurden in Minimum Essential Medium mit nicht essentiellen Aminosäuren (Gibco), ergänzt mit Natrium-Pyruvat (1 mMol), Glutamin (2 mMol) und 10% fötalem Rinderserum (Gibco) kultiviert und in der log-Wachstumsphase geerntet. Anschließend wurden die SK-UT-1B-Zellen in Cytostar® multi-well Platten (Amersham) mit einer Dichte von 4000 cells per well eingebracht und über Nacht in einem Inkubator inkubiert. Verschiedene Konzentrationen der Verbindungen (gelöst in DMSO; Endkonzentration: <1%) wurden zu den Zellen zugegeben. Nach 48 Stunden Inkubation wurde ^14C-Thymidin (Amersham) zu jedem well zugesetzt, und es wurde weitere 24 Stunden inkubiert. Die Menge an ^14C-Thymidin, die in Gegenwart des Inhibitors in die Tumorzellen eingebaut wurde und die die Zahl der Zellen in der S-Phase repräsentiert, wurde in einem Wallace 1450 Microbeta Flüssig Scintillations Zähler gemessen. IC50-Werte für die Inhibierung der Proliferation (= Inhibierung von eingebautem ^14C-Thymidin) wurden - unter Korrektur für die Hintergrundstrahlung - berechnet. Alle Messungen wurden zweifach ausgeführt.
row,SMILES,IC50
1,"CCCCNCc1ccc(N/C(=C2\C(=O)Nc3ccc(C(N)=O)cc32)c2ccccc2)cc1 [4(120), 3-2-[1-(4-(N-Butyl-aminomethyl)-phenylamino)-1-phenylmethylen]-5-amido-2-indolinon-trifluoracetat]",0.04 µM
2,"NC(=O)c1ccc2c(c1)/C(=C(/Nc1ccc(CNCc3ccccc3)cc1)c1ccccc1)C(=O)N2 [4(122), 3-Z-[1-(4-(N-(Phenyl-methyl)-aminomethyl)-phenylamino)-1-phenyl-methylen]-5-amido-2-indolinon-trifluoracetat]",0.04 µM
3,"CCN(CC)CCCOc1ccc(N/C(=C2\C(=O)Nc3ccc(C(N)=O)cc32)c2ccccc2)cc1 [4(129), 3-Z-[1-(4-(3-Diethylamino-propoxy)-phenylamino)-1-phenylmethylen] -5-amido-2-indolinon-trifluoracetat]",0.04 µM
4,"NC(=O)c1ccc2c(c1)/C(=C(/Nc1ccccc1)c1ccccc1)C(=O)N2 [Beispiel 4(2), 3-Z-(1-Phenylamino-1-phenyl-methylen)-5-amido-2-indolinon]",0.17 µM
5,"NC(=O)c1ccc2c(c1)/C(=C(/Nc1ccc(Br)cc1)c1ccccc1)C(=O)N2 [Beispiel 4(14), 3-Z-[1-(4-Brom-phenylamino)-1-phenyl-methylen]-5-amido-2-indolinon]",0.18 µM
6,"NC(=O)c1ccc2c(c1)/C(=C(/Nc1ccc(CN3CCCCC3)cc1)c1ccccc1)C(=O)N2 [Beispiel 4(53), 3-Z-[1-(4-Piperidinomethyl-phenylamino)-1-phenyl-methylen] -5-amido-2-indolinon-trifluoracetat]",0.01 µM
7,"NC(=O)c1ccc2c(c1)/C(=C(/Nc1ccc(CN3CCCCCC3)cc1)c1ccccc1)C(=O)N2 [Beispiel 4(54), 3-Z-[1-(4-Hexamethyleniminomethyl-phenylamino)-1-phenylmethylen]-5-amido-2-indolinon-trifluoracetat]",0.03 µM
8,"NC(=O)c1ccc2c(c1)/C(=C(/Nc1ccc(CN3CCC(Cc4ccccc4)CC3)cc1)c1ccccc1)C(=O)N2 [Beispiel 4(60), 3-Z-[1-(4-(4-Benzyl-piperidinomethyl)-phenylamino)-1-phenyl-methylen]-5-amido-2-indolinon]",0.03 µM
9,"CN(C)Cc1ccc(N/C(=C2\C(=O)Nc3ccc(C(N)=O)cc32)c2ccccc2)cc1 [Beispiel 4(62), 3-Z-[1-(4-Dimethylaminomethyl-phenylamino)-1-phenyl-methylen]-5-amido-2-indolinon]",0.05 µM
10,"CN(Cc1ccccc1)Cc1ccc(N/C(=C2\C(=O)Nc3ccc(C(N)=O)cc32)c2ccccc2)cc1 [Beispiel 4(94), 3-Z-[1-(4-(N-Methyl-N-benzyl-amino-methyl)-phenylamino)-1-phenyl-methylen]-5-amido-2-indolinon-trifluoracetat]",0.03 µM

# From patent publication EP1071665B1, “SUBSTITUTED INDOLINONES HAVING AN INHIBITING EFFECT ON KINASES AND CYCLINE/CDK COMPLEXES” (Boehringer Ingelheim Pharma GmbH & Co.KG, priority 1998, dated 1999)
